Each structure is given as a SMILES string.

Usually AC50 stands for the concentration at which the activity in the assay is half-maximal. High values mean weaker potency, low ones greater potency.

For test [1], the target named is T1, Muscarinic acetylcholine receptor M2 (Homo sapiens, UniProt P08172).
T1 sequence (P08172 whole entry): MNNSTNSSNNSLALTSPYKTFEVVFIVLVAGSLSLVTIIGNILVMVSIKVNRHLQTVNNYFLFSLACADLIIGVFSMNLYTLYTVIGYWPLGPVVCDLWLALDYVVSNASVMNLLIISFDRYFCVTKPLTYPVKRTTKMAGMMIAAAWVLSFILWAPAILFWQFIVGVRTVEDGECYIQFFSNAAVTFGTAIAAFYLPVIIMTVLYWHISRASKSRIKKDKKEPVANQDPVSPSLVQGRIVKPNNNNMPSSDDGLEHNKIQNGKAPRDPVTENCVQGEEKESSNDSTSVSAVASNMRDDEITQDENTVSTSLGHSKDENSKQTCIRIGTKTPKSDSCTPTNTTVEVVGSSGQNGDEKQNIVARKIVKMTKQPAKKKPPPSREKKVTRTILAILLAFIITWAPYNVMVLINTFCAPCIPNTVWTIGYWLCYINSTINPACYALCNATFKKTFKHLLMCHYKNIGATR
It counts as functional, cell-based.

The target of another test is Histamine H3 receptor (Homo sapiens, UniProt Q9Y5N1).
In another test the target is T2, Adenosine receptor A3 (Homo sapiens, UniProt P0DMS8).
T2 sequence (P0DMS8 whole entry): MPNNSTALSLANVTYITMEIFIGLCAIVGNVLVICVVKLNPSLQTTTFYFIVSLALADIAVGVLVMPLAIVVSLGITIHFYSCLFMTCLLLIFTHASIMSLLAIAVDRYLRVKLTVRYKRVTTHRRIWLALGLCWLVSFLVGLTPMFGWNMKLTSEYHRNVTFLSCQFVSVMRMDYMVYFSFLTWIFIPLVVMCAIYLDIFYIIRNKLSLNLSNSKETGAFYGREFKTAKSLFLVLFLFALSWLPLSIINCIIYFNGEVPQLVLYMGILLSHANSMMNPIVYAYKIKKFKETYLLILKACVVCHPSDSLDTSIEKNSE

Test [2] concerns the target cGMP-inhibited 3',5'-cyclic phosphodiesterase 3A (Homo sapiens, UniProt Q14432). It counts as functional.
Test [3] concerns the target Sodium-dependent dopamine transporter (Homo sapiens, UniProt Q01959).
Test [4] has as its target T3, Amine oxidase [flavin-containing] A (Homo sapiens, UniProt P21397).
T3 sequence (P21397 whole entry): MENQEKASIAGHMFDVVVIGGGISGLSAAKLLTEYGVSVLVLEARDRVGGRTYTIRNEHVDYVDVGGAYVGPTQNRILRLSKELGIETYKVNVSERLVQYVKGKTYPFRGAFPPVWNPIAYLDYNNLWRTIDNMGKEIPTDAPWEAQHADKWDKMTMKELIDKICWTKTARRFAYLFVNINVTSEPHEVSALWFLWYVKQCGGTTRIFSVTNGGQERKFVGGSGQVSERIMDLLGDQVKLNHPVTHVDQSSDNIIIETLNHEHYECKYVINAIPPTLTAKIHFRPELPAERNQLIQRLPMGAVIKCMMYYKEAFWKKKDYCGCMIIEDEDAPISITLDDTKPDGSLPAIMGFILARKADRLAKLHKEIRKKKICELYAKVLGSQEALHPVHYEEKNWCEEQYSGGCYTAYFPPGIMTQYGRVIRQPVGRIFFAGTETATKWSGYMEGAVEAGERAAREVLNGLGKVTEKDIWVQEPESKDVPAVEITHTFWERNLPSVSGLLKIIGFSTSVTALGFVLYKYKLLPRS
It counts as functional.

For test [5], the target named is Beta-1 adrenergic receptor (Homo sapiens, UniProt P08588). It is filed as functional.
A further test concerns the target D(3) dopamine receptor (Homo sapiens, UniProt P35462).
In test [6] the target is T4, Alpha-1A adrenergic receptor (Homo sapiens, UniProt P35348).
T4 sequence (P35348 whole entry): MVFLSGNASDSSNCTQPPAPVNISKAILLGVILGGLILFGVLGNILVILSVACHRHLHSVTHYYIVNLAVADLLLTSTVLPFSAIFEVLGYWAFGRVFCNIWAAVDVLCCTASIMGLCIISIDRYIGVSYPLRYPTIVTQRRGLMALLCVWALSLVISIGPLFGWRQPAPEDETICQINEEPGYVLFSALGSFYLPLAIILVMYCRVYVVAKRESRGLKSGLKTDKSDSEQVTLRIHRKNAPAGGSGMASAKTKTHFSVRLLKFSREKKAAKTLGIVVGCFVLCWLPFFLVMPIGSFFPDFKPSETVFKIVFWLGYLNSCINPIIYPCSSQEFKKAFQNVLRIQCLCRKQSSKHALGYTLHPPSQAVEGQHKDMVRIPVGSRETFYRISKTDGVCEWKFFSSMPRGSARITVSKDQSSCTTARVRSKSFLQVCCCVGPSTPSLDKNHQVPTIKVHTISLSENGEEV
It counts as functional, cell-based.

Test [7] has as its target Kappa-type opioid receptor (Homo sapiens, UniProt P41145).
For test [8], the target named is T5, Muscarinic acetylcholine receptor M1 (Homo sapiens, UniProt P11229).
T5 sequence (P11229 whole entry): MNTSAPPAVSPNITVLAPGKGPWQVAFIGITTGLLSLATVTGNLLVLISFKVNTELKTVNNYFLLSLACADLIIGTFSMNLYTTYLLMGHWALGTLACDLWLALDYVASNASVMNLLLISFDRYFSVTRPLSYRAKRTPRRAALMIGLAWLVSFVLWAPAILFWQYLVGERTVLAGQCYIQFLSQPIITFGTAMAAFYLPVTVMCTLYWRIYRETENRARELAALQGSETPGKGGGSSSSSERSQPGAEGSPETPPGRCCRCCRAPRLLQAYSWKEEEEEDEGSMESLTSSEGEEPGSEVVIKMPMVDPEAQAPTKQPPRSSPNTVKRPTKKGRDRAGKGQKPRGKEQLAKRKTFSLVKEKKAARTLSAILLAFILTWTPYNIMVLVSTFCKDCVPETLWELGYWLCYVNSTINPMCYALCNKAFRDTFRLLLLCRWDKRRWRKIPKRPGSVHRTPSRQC
It counts as functional.
Also: assay procedure not described here.

Sequence of D(3) dopamine receptor (P35462 whole entry): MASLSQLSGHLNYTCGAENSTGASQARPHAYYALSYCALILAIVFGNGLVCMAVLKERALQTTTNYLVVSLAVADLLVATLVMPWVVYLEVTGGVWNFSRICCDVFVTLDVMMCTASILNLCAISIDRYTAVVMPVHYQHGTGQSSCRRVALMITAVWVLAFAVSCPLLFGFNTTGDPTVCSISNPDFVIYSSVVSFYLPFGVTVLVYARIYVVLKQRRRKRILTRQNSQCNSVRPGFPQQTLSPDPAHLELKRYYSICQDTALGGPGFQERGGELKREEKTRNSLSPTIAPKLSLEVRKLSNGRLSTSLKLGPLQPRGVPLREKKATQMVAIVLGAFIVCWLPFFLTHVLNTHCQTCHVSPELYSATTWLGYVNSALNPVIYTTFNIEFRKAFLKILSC
Sequence of Sodium-dependent dopamine transporter (Q01959 whole entry): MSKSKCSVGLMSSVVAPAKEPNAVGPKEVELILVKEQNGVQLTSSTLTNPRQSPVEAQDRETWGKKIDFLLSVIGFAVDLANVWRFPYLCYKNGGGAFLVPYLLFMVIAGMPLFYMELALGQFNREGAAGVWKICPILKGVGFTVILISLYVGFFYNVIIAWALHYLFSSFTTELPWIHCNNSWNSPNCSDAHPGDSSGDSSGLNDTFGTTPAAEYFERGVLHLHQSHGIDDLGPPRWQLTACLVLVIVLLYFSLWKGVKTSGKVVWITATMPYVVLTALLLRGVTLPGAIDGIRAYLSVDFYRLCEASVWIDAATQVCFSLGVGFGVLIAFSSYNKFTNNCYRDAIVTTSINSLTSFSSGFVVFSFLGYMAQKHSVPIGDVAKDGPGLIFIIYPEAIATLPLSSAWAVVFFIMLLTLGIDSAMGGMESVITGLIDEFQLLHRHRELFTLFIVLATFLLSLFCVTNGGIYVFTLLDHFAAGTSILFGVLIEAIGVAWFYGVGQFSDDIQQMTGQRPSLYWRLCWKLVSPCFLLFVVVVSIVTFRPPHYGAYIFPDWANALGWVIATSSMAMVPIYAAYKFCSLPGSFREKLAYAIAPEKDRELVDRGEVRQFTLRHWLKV
Sequence of cGMP-inhibited 3',5'-cyclic phosphodiesterase 3A (Q14432 whole entry): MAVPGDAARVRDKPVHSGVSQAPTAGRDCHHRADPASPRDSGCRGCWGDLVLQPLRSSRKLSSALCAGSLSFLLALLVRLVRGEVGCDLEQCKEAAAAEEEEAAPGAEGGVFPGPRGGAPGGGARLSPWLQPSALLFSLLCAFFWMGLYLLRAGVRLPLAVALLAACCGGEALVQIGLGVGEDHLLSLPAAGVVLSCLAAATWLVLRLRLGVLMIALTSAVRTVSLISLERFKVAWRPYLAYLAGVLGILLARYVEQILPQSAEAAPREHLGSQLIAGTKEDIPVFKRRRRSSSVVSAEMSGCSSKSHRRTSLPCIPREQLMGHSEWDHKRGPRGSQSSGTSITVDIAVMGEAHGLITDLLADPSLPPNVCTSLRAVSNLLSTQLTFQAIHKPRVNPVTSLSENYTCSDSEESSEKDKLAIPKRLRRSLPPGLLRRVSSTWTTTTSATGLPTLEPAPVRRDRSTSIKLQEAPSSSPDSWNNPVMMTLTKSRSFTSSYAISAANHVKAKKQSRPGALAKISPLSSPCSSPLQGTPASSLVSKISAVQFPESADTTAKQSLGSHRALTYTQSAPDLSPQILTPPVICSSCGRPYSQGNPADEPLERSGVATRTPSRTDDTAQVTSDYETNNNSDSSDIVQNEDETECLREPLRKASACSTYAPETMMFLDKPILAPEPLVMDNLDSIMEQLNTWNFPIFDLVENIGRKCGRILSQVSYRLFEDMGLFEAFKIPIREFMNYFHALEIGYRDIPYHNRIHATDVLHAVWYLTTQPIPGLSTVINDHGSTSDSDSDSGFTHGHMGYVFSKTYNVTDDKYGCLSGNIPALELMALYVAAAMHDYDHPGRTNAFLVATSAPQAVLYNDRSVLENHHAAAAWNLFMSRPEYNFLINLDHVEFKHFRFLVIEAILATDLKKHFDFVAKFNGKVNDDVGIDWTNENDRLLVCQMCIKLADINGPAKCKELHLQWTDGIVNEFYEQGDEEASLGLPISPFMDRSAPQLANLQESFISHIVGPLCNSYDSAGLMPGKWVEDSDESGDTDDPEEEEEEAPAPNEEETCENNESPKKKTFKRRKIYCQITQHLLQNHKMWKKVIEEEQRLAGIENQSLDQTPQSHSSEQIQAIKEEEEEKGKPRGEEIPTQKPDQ
Sequence of Kappa-type opioid receptor (P41145 whole entry): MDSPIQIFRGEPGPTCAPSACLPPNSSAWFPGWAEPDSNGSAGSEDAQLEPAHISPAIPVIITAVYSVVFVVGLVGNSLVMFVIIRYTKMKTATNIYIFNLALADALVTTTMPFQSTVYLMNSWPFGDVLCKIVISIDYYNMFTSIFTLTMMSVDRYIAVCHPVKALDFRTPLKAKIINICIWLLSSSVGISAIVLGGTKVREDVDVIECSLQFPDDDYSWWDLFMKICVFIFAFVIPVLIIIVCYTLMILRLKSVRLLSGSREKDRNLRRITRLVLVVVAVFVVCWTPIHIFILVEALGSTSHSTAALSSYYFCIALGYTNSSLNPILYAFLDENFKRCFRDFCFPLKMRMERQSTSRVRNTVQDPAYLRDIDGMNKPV
Sequence of Beta-1 adrenergic receptor (P08588 whole entry): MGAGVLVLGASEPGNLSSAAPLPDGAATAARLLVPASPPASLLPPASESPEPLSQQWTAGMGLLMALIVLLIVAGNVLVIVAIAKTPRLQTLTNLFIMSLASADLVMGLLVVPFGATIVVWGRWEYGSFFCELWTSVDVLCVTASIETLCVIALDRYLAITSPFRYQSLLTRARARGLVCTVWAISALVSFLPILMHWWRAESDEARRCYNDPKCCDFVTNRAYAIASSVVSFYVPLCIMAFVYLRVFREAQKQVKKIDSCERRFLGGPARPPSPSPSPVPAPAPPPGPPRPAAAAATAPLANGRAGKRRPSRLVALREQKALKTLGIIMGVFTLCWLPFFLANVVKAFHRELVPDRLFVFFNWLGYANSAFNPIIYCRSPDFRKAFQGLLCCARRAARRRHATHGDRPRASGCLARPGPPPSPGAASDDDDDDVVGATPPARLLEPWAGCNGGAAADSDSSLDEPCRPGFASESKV
Sequence of Histamine H3 receptor (Q9Y5N1 whole entry): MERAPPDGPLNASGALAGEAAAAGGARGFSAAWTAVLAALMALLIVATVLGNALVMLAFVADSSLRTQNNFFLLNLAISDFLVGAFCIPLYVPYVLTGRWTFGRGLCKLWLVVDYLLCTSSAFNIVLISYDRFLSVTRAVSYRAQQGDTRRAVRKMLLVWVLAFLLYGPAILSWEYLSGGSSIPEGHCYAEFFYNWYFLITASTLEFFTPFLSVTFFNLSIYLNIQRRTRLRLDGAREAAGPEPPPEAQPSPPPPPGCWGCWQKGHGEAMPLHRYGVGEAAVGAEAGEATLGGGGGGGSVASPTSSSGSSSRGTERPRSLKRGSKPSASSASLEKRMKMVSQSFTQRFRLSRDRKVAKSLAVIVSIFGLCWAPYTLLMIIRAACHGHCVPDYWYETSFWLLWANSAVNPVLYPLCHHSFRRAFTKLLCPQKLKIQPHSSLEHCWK

For the molecule `N=C(N)NC(=O)c1nc(Cl)c(N)nc1N` [AMILORIDE], the AC50 in [1] is over 30 µM; at Histamine H3 receptor, over 30 µM; at Adenosine receptor A3 it was over 30 µM; in test [2] it was over 30 µM; in test [3] it was over 30 µM; in test [4] it was 4.41 µM. Moreover, the AC50 (in [5]; on D(3) dopamine receptor; in test [6]; in test [7]) was over 30 µM each time.
On to `COc1ccc(-c2cc(=S)ss2)cc1` [ANETHOLTRITHION], for which the AC50 was over 30 µM in test [1]; over 10 µM on Histamine H3 receptor; 7.7 µM at Adenosine receptor A3; over 30 µM in test [8]; over 30 µM in test [2]; 10 µM in [3]. Also, the AC50 in [4] is 7.4 µM; in test [5], over 10 µM; on D(3) dopamine receptor, over 30 µM; in test [6], over 30 µM; in test [7], over 30 µM.
As for `CC(C)(C)NCC(O)COc1ccccc1C#N` (stereo not drawn) [BUNITROLOL], the AC50 in test [1] is over 30 µM; in test [8], over 30 µM; in [2], over 30 µM; in [4], 14 µM; on D(3) dopamine receptor it was over 30 µM; in test [6], over 30 µM. This molecule also returned an AC50 in test [7] of over 30 µM.
For the molecule `CN(C)CCC(O)(c1ccccc1)c1ccccc1Cl` (stereo not drawn) [CHLOPHEDIANOL], the AC50 in [1] was over 10 µM; at Histamine H3 receptor, over 10 µM; on Adenosine receptor A3 it was over 10 µM; in [8], over 10 µM; in test [2], over 30 µM; in test [3], over 10 µM. In addition, the concentration at half-maximal activity (AC50) in test [4] is over 10 µM; in test [5], over 10 µM; on D(3) dopamine receptor it was over 30 µM; in test [7], 7.1 µM.
As for `COc1cccc2c1C(=O)c1c(O)c3c(c(O)c1C2=O)C[C@@](O)(C(=O)CO)C[C@@H]3O[C@H]1C[C@H](N)[C@H](O)[C@H](C)O1` [DOXORUBICIN], the AC50 is over 10 µM in [1]; over 30 µM at Histamine H3 receptor; over 30 µM on Adenosine receptor A3; over 30 µM in test [2]; over 30 µM in [3]; over 30 µM in [4]. The AC50 in test [5] is over 30 µM; at D(3) dopamine receptor it was over 30 µM; in test [6] it was 16 µM; in [7], over 10 µM.
On to `CC(C)(Oc1ccc(Cl)cc1)C(=O)OCCOC(=O)c1cccnc1` [ETOFIBRATE], for which the AC50 (in test [1]; on Histamine H3 receptor; on Adenosine receptor A3; in [8]; in test [2]; in test [3]) was over 30 µM throughout. The concentration at half-maximal activity (AC50) (in test [5]; at D(3) dopamine receptor; in [6]; in test [7]) was over 30 µM in each case.
With `CCn1c(=O)c2c(nc(/C=C/c3ccc(OC)c(OC)c3)n2C)n(CC)c1=O` [ISTRADEFYLLINE], the AC50 is over 30 µM in test [1]; 24 µM on Adenosine receptor A3; over 30 µM in test [8]; over 30 µM in [2]; over 30 µM in test [3]; over 30 µM in test [4]. This molecule showed a half-maximal activity concentration (AC50) in test [6] of over 30 µM.
Regarding `COc1ccc(C(=O)c2ccccc2)c(O)c1` [OXYBENZONE], the AC50 (in [1]; in [8]; in test [2]; in test [4]; at D(3) dopamine receptor; in [6]) was over 30 µM each time. Also, the AC50 in [7] is over 30 µM.
Turning to `C[C@]12C=CC(=O)C=C1CC[C@@H]1[C@@H]2[C@@H](O)C[C@@]2(C)[C@H]1CC[C@]2(O)C(=O)CO` [PREDNISOLONE], the concentration at half-maximal activity (AC50) is over 10 µM in test [1]; over 10 µM at Histamine H3 receptor; over 30 µM at Adenosine receptor A3; over 30 µM in [2]; over 30 µM in test [3]; over 10 µM in test [4]. The AC50 in [5] is over 10 µM; on D(3) dopamine receptor it was over 30 µM; in [6], over 30 µM; in test [7], over 10 µM.
As to `CCC(=O)c1ccc2c(c1)N(CC(C)N(C)C)c1ccccc1S2` (stereo not drawn) [PROPIOMAZINE], the AC50 in test [1] is 1.1 µM; on Histamine H3 receptor, over 10 µM; on Adenosine receptor A3, over 10 µM; in [8], 0.12 µM; in test [2] it was over 30 µM; in test [3], over 10 µM. Also, the AC50 in test [4] is over 10 µM; in test [5] it was over 10 µM; on D(3) dopamine receptor, 0.53 µM; in [7] it was 1.7 µM.
For the molecule `Cc1cn(-c2cc(NC(=O)c3ccc(C)c(Nc4nccc(-c5cnccn5)n4)c3)cc(C(F)(F)F)c2)cn1` [RADOTINIB], the AC50 in [1] was over 30 µM; on Adenosine receptor A3, 3.3 µM; in [8], over 30 µM; in test [2] it was 30 µM; in test [3], over 30 µM; in test [4], over 30 µM. In addition, the concentration at half-maximal activity (AC50) in test [5] and in test [6] was over 30 µM in each case.
For `CNC(=O)c1cnn(-c2nc(N)c3ncn([C@@H]4O[C@H](CO)[C@@H](O)[C@H]4O)c3n2)c1` [REGADENOSON ANHYDROUS], half-maximal activity at Adenosine receptor A3 (AC50) was put at 3.7 µM.
Regarding `Cc1ccc(O)c([C@H](CCN(C(C)C)C(C)C)c2ccccc2)c1` [TOLTERODINE], the AC50 on Histamine H3 receptor was over 30 µM; in test [8], 0.0051 µM; in test [3] it was over 10 µM; in test [4], over 10 µM; in [5], over 10 µM; at D(3) dopamine receptor, over 10 µM. Besides, the AC50 in test [6] was over 30 µM; in test [7] it was 6.71 µM.
Turning to `CC1(C)O[C@@H]2C[C@H]3[C@@H]4CCC5=CC(=O)C=C[C@]5(C)[C@@]4(F)[C@@H](O)C[C@]3(C)[C@]2(C(=O)CO)O1` [TRIAMCINOLONE ACETONIDE], the half-maximal activity concentration (AC50) (in [1]; on Histamine H3 receptor; on Adenosine receptor A3; in [2]; in test [3]; in test [4]) was over 30 µM throughout. Further, the concentration at half-maximal activity (AC50) (in test [5]; on D(3) dopamine receptor; in [7]) was over 30 µM throughout.

The record behind these values is ChEMBL document CHEMBL5291721, “A preclinical secondary pharmacology resource illuminates target-adverse drug reaction associations of marketed drugs” (Nat Commun, 2023).
